# Results reported in patent publication US20050282824A1, “Substituted pyrimidines as inhibitors of bacterial type III protein secretion systems” (priority 2004, published 2005).
# Legend:
# Type in all cases: cell-based
# [1] = tested on: Type III protein secretion of ExoU by P. aeruginosa PA103; test: Tertiary assay: Type III-dependent secretion of ExoU by P. aeruginosa PA103; settings: Pseudomonas aeruginosa, read-out: ExoU IC50(uM)
# Text: Tertiary assay: inhibition of Type III protein secretion of effectors from a Pseudomonas aeruginosa system. Type III protein secretion is used by P. aeruginosa to secrete several essential virulence determinants. One effector of the type III protein secretion system of P. aeruginosa PA 103 is the virulence determinants ExoU.
# The amount of Type III-dependent secretion of ExoU by P. aeruginosa PA103 can be determined in a cell-based assay by quantification of the 73.9 kDa ExoU protein secreted into the extracellular medium. Such quantitation can be achieved by growing strain PA 103 in a deferrated medium in the presence of nitrilotriacetic acid (an inducer of Type III protein secretion in P. aeruginosa) and either in the presence or absence of putative inhibitors. After a prolonged growth period, the cells are sedimented and the supernatants concentrated by ammonium sulfate precipitation. The proteins in the resuspended pellets are separated by electrophoresis on SDS-polyacrylamide gels. After staining gels with Colloidal Blue™, the 73.9 kDa ExoU band is quantitated by scanning through an imager. The effects of inhibitors on the intensity of the ExoU band may be measured relative to that of untreated controls.
# [2] = tested on: SPI1 type III protein secretion of SipB by S. enterica; test: Secondary assay: Type III-dependent protein secretion of the SipB polypeptide by S. enterica; settings: Salmonella enterica, read-out: SipB IC50(uM)
# Procedure: Secondary assay: Type III-dependent protein secretion of the SipB polypeptide by S. enterica. The SipB protein of S. enterica is another effector of the SPI1 type III protein secretion system from S. enterica. In this cell-based procedure, the Type III-dependent secretion of SipB from the bacterial cytoplasm to the extracellular medium was measured through its reactivity with a cognate mouse monoclonal.
# Salmonella enterica cells growing either in the presence or in the absence of inhibitors are induced for the production of SipB. Following an established period of growth the cells are sedimented and the amount of SipB present in the supernatant is quantified with a scanning imager following application of immunoblot techniques. Detection may employ an anti-SipB mouse monoclonal antibody (e.g., obtained from Jorge Galan, SUNY at Stony Brook, N.Y.) followed by treatment with commercially available sheep anti-mouse polyclonal antibody conjugated with horseradish peroxidase. Thereafter the membrane is treated with a peroxidase chemiluminescent substrate and exposed to film for an appropriate exposure time. Inhibition may be measured relative to untreated controls.
# [3] = tested on: SPI1 type III protein secretion of SopE'-'Bla by Salmonella enterica; test: Primary assay: Type III protein secretion of the chimeric SopE'-'Bla polypeptide by Salmonella enterica; settings: read-out: SopE IC50(uM)
# Text: Primary assay: Type III protein secretion of the chimeric SopE′-′Bla polypeptide by Salmonella enterica. This procedure is a cell-based assay that measures the type III-dependent secretion by Salmonella enterica of a plasmid-encoded chimeric polypeptide whose synthesis can be regulated, and which is endowed with an enzymatic activity that can be monitored […] by hydrolysis of a substrate that is unable to penetrate into the bacterial cytoplasm within the time constraints of the reaction. Thus, the colorimetric reaction is not influenced by SopE′-′Bla polypeptide in the bacterial cytoplasm. Instead, it effectively measures the amount of polypeptide that has been secreted from the S. enterica cytoplasm to the extracellular medium via type III system protein secretion.
# The SopE′-′Bla recombinant polypeptide consists of two functionally distinct domains spliced together. The N-terminus domain is encoded by a polynucleotide region specifying the signal for type III secretion of the SopE polypeptide of S. enterica, an effector of the SPI1 type III protein secretion system. The C-terminus domain of SopE′-′Bla consists of a 263 amino acid peptide sequence that corresponds to the TEM-1 β-lactamase expressed by plasmid pBR322 but without its N-terminal signal sequence. The TEM-1 β-lactamase part of the SopE′-′Bla chimeric polypeptide is used as a reporter enzyme. It is capable of hydrolyzing nitrocefin resulting in a product whose accumulation can be monitored by colorimetric detection. The secretion of the SopE′-′Bla chimeric polypeptide from the cytoplasm to the extracellular medium is dependent on type III protein secretion.
# For this procedure, cells grown under conditions known to favor a functional SPI1 secretion system are induced for expression of the SopE′-′Bla protein and grown either in the presence or in the absence of putative inhibitors for determined time. Nitrocefin is then added to the various cultures and its hydrolysis are used for quantitation. An inhibitor of Type III protein secretion is generally a compound that reduces the signal of the enzymatic reaction by decreasing the amount of SopE′-′Bla secreted into the extracellular medium.
Structure (SMILES),IC50 [1] [µM],IC50 [2] [µM],IC50 [3] [µM]
"O=C(NC(Cc1ccc(Cl)cc1)C(=O)O)c1cc(-c2cccc(C(F)(F)F)c2)nc(N2CCN(c3ccccc3)CC2)n1 (stereo in doubt) [Compound 31, (R)-3-(4-Chlorophenyl)-2-{[2-(4-phenyl-piperazin-1-yl)-6-(3-trifluoromethylphenyl)pyrimidine-4-carbonyl]amino}propionic acid]",88.7,13.3,4.1
"Cc1cc(C(=O)NC(Cc2ccc(Cl)cc2)C(=O)O)nc(-c2ccc(-c3ccccc3)cc2)n1 (stereo not drawn) [Compound 1, 2-[(2-Biphenyl-4-yl-6-methyl-pyrimidine-4-carbonyl)amino]-3-(4-chlorophenyl)-propionic acid]",83.9,4.4,7.4
"O=C(N[C@@H](CSCc1ccccc1)C(=O)O)c1cc(N2CCCCC2)nc(-c2ccc(-c3ccccc3)cc2)n1 [Compound 3, (R)-3-Benzylsulfanyl-2-[(2-biphenyl-4-yl-6-piperidin-1-yl-pyrimidine-4-carbonyl)-amino]propionic acid]",37.6,3,4.1
"O=C(N[C@H](Cc1ccc(Cl)cc1)C(=O)O)c1cc(N2CCCCC2)nc(N2CCC(c3ccccc3)CC2)n1 [Compound 4, (R)-3-(4-Chlorophenyl)-2-{[2-(4-phenylpiperidin-1-yl)-6-piperidin-1-yl-pyrimidine-4-carbonyl]amino}propionic acid]",> 100,27,2
"CN(C)c1ccc(-c2nc(C(=O)N[C@H](Cc3ccc(Cl)cc3)C(=O)O)cc(N3CCc4ccccc4C3)n2)cc1 [Compound 6, (R)-3-(4-Chlorophenyl)-2-{[6-(3,4-dihydro-1H-isoquinolin-2-yl)-2-(4-dimethylaminophenyl)pyrimidine-4-carbonyl]amino}propionic acid]",68.4,50,4.5
"O=C(N[C@H](COCc1ccccc1)C(=O)O)c1cc(N2CCC(c3ccccc3)CC2)nc(-c2ccc(Cl)c(Cl)c2)n1 [Compound 11, (R)-3-Benzyloxy-2-{[2-(3,4-dichlorophenyl)-6-(4-phenylpiperidin-1-yl)-pyrimidine-4-carbonyl]amino}propionic acid]",92.2,44.2,1.4
"O=C(N[C@H](Cc1ccc(Cl)cc1)C(=O)O)c1cc(N2CCC(c3ccccc3)CC2)nc(-c2cccc(C(F)(F)F)c2)n1 [Compound 12, (R)-3-(4-Chlorophenyl)-2-{[6-(4-phenylpiperidin-1-yl)-2-(3-trifluoromethyl-phenyl)pyrimidine-4-carbonyl]amino}propionic acid]",> 100,28.1,1.4
"O=C(N[C@H](Cc1ccc(Cl)cc1)C(=O)O)c1cc(N2CCCc3ccccc32)nc(-c2cccc(C(F)(F)F)c2)n1 [Compound 13, (R)-3-(4-Chlorophenyl)-2-{[6-(3,4-dihydro-2H-quinolin-1-yl)-2-(3-trifluoromethyl-phenyl)pyrimidine-4-carbonyl]amino}propionic acid]",> 100,19.4,1.3
"CN(C)c1ccc(-c2nc(C(=O)N[C@H](Cc3ccc(Cl)cc3)C(=O)O)cc(N3CCC(c4ccccc4)CC3)n2)cc1 [Compound 14, (R)-3-(4-Chlorophenyl)-2-{[2-(4-dimethylaminophenyl)-6-(4-phenylpiperidin-1-yl)pyrimidine-4-carbonyl]amino}propionic acid]",> 100,27.6,1.8
"O=C(N[C@H](Cc1ccc(Cl)cc1)C(=O)O)c1cc(N2CCC(c3ccccc3)CC2)nc(-c2ccc(C(F)(F)F)cc2)n1 [Compound 15, (R)-3-(4-Chlorophenyl)-2-{[6-(4-phenylpiperidin-1-yl)-2-(4-trifluoromethylphenyl)-pyrimidine-4-carbonyl]amino}propionic acid]",68.1,8.5,3.6
"O=C(N[C@H](Cc1ccc(Cl)cc1)C(=O)O)c1cc(N2CCCc3ccccc32)nc(-c2ccc(Oc3ccccc3)cc2)n1 [Compound 16, (R)-3-(4-Chlorophenyl)-2-{[6-(3,4-dihydro-2H-quinolin-1-yl)-2-(4-phenoxy-phenyl)pyrimidine-4-carbonyl]amino}propionic acid]",62.2,10.2,6.2
"O=C(N[C@@H](CSCc1ccccc1)C(=O)O)c1cc(N2CCC(c3ccc(F)cc3)CC2)nc(-c2ccc(Cl)c(Cl)c2)n1 [Compound 17, (R)-3-Benzylsulfanyl-2-({2-(3,4-dichlorophenyl)-6-[4-(4-fluorophenyl)piperidin-1-yl]pyrimidine-4-carbonyl}amino)propionic acid]",> 100,23,1.6
"O=C(N[C@@H](CSCc1ccccc1)C(=O)O)c1cc(N2CCC(c3ccccc3)CC2)nc(-c2ccc(F)c(F)c2)n1 [Compound 18, (R)-3-Benzylsulfanyl-2-{[2-(3,4-difluorophenyl)-6-(4-phenylpiperidin-1-yl)-pyrimidine-4-carbonyl]amino}propionic acid]",46.6,16.8,19
"O=C(N[C@@H](CSCc1ccccc1)C(=O)O)c1cc(N2CCN(c3ccccc3)CC2)nc(-c2ccc(F)c(F)c2)n1 [Compound 19, (R)-3-Benzylsulfanyl-2-{[2-(3,4-difluorophenyl)-6-(4-phenyl-piperazin-1-yl)-pyrimidine-4-carbonyl]amino}propionic acid]",67.8,8,6.4
"O=C(N[C@@H](CSCc1ccccc1)C(=O)O)c1cc(N2CCC(c3ccccc3)CC2)nc(-c2ccc(C(F)(F)F)cc2)n1 [Compound 21, (R)-3-Benzylsulfanyl-2-{[6-(4-phenylpiperidin-1-yl)-2-(4-trifluoromethylphenyl)-pyrimidine-4-carbonyl]amino}propionic acid]",39,24.8,3.6
"O=C(N[C@@H](CSCc1ccccc1)C(=O)O)c1cc(N2CCC(c3ccc(F)cc3)CC2)nc(-c2ccc(C(F)(F)F)cc2)n1 [Compound 22, (R)-3-Benzylsulfanyl-2-{[6-[4-(4-fluorophenyl)piperidin-1-yl]-2-(4-trifluoromethylphenyl)pyrimidine-4-carbonyl]amino}propionic acid]",52.6,> 100,1.8
"O=C(N[C@@H](CSCc1ccccc1)C(=O)O)c1cc(N2CCN(c3ccccc3)CC2)nc(-c2ccc(C(F)(F)F)cc2)n1 [Compound 23, (R)-3-Benzylsulfanyl-2-{[6-(4-phenyl-piperazin-1-yl)-2-(4-trifluoromethylphenyl)-pyrimidine-4-carbonyl]amino}propionic acid]",73,31.7,3.3
"O=C(N[C@@H](CSCc1ccccc1)C(=O)O)c1cc(N2CCN(c3ccccc3)CC2)nc(-c2ccc(Cl)cc2)n1 [Compound 24, (R)-3-Benzylsulfanyl-2-{[2-(4-chlorophenyl)-6-(4-phenyl-piperazin-1-yl)-pyrimidine-4-carbonyl]amino}propionic acid]",46.9,39.2,5.45
